Data as given in US20090227546A1, “PHARMACEUTICAL COMPOSITION OF DROSPIRENONE AND ETHYNYLESTRADIOL” (Laboratories Liconse, S.A., priority 2004, published 2009).

Assays:
[1] = Dissolution profile of crystalline drospirenone tablets in acidic medium (USP 27 apparatus 2); format: physicochemical; conditions: HCl 0.1 N, regardless of the size of the particle, FIG. 16
Protocol: The dissolution profiles were obtained from tablets containing drospirenone in a crystalline state with different sized particles, using a dissolution apparatus designated in the U.S. Pharmacopoeia, Edition 27, apparatus 2, at 50 rpm and 900 ml of lauryl sulfate 0.07% in a strongly acidic medium, HCl 0.1 N, thermostatized at 37° C.

[2] = Dissolution of drospirenone in methanol as granulation solvent; format: physicochemical
Protocol: About 16.00 ml of the dichloromethane/methanol solution at about a 6:1 ratio were placed in a stainless steel stirring apparatus. Next, about 0.0306 g of ethynylestradiol, non-micronized with a particle size no less than about 50 μm (addition of an excess of about 2% was foreseen to make up for losses during the process), were added under constant stirring. The mixture was shaken/stirred until completely dissolved. About 3.0600 g of drospirenone, non-micronized with a particle size no less than about 50 μm (addition of an excess of about 2% was foreseen to make up for losses during the process), were added under constant stirring until completely dissolved. Once dissolved, about 3.4000 g of polyvinylpyrrolidone K-30 were added with stirring until completely dissolved.
Only about 16 ml methanol was used in this example, which compares to substantially the same volume as the about 16 ml methylene chloride/methanol (about 6:1) used in example 1. […] Recall that in example 1 drospirenone was completely dissolved. Again, the process was conducted in accordance with example 1, including the step of “Granulation—Drying” where a planetary-type mixer was used and the mixture kneaded. The name of the final batch granulated: LPDIMet-16 ml.
In an extra experiment related to this Example 2, in the step “Dissolution of the active ingredients and binder” methanol was added until complete dissolution. […]

stability of drospirenone in an acidic medium [1]: instability | amount of methanol required for complete dissolution ([2]; about 3.06 g drospirenone and about 0.0306 g ethynylestradiol): about 154.3 ml | dissolution of drospirenone in about 16 ml methanol ([2]; about 3.06 g drospirenone, methanol only): not enough for the total dissolution
Structure (SMILES): C[C@]12CCC(=O)C=C1[C@@H]1C[C@@H]1[C@H]1[C@@H]3[C@@H]4C[C@@H]4[C@@]4(CCC(=O)O4)[C@@]3(C)CC[C@@H]12 [drospirenone, 6β,7β,15β,16β-dimethylene-3-oxo-17α-pregn-4-ene-21,17-carbolactone]
